Publication PMC5740082, “Identification of a CARM1 Inhibitor with Potent In Vitro and In Vivo Activity in Preclinical Models of Multiple Myeloma” (Scientific Reports, 2017)

Key:
[1] = system: SK-MM-2; experiment: Six-day cell proliferation assay (CellTiter-Glo); type: cell-based; settings: Homo sapiens, 144 h; SK-MM-2 (Plasma cell leukemia), 6 days; read-out: Average day 6 gIC50
Procedure: (§1) Six-day cell proliferation assay
(§2) Optimal cell seeding density was determined empirically for each cell lines by examining the gro wth of a wide ran ge o f seedin g densities in a 3 84-well formatto identify conditio ns that permitted maximal and continued proliferation for 6 days. Cells were plat ed in duplicate plates 24 hours before treatment with a 20- point two-fold dilution series of compound or 0.15%
(§3) DMSO. Plates were incubated for 6 da ys at 37°C in 5% CO2. Cells were th en l ysed with CellTiter-Glo (CTG) (Pr omega) and chemiluminescent sign al was detected with an appropriat e microplate reader. In addition, an untreated plate of cells was harvested at the time of compound addition (T0) to quantif y the initial cell densit y. CTG values obtained after 6 days of treatment were expressed as a percent of the T0 value and plotted against compound concentration. […]
(§4) Supplementary Table S 3. […] A p anel […]
(§5) of cell lines was treated with EZM2302fo r 6da ys in a proliferation ass a y. Cell densit y (as assessed b y CellTiter-Gl o) at da y 0 was compared to day 6 to det ermine growth IC 50 values , calculated us i n g a f our parameter dose response equation.
(§6) Cell Type According to Cell Type Category Cell L ine Name gIC50 Average day 6 Standard Replicates

[2] = system: NOMO-1; experiment: Six-day cell proliferation assay (CellTiter-Glo); type: cell-based; settings: Homo sapiens, 144 h; NOMO-1 (AML), 6 days; read-out: Average day 6 gIC50
Procedure: as §1, §2, §3, §4, §5, §6

[3] = system: U266 B1; experiment: Six-day cell proliferation assay (CellTiter-Glo); type: cell-based; settings: Homo sapiens, U-266, 144 h; U266 B1 (MM), 6 days; read-out: Average day 6 gIC50
Procedure: as §1, §2, §3, §4, §5, §6

[4] = system: UCSD-AML1; experiment: Six-day cell proliferation assay (CellTiter-Glo); type: cell-based; settings: 144 h; UCSD-AML1 (AML), 6 days; read-out: Average day 6 gIC50
Procedure: as §1, §2, §3, §4, §5, §6

[5] = system: RPMI-8226; experiment: Six-day cell proliferation assay (CellTiter-Glo); type: cell-based; settings: Homo sapiens, 144 h; RPMI-8226 (MM), 6 days; read-out: Average day 6 gIC50
Procedure: as §1, §2, §3, §4, §5, §6

[6] = system: UT-7; experiment: Six-day cell proliferation assay (CellTiter-Glo); type: cell-based; settings: Homo sapiens, UT7, 144 h; UT-7 (AML), 6 days; read-out: Average day 6 gIC50
Procedure: as §1, §2, §3, §4, §5, §6

[7] = system: TF-1; experiment: Six-day cell proliferation assay (CellTiter-Glo); type: cell-based; settings: Homo sapiens, 144 h; TF-1 (AML M6; Erythroleukemia), 6 days; read-out: Average day 6 gIC50
Procedure: as §1, §2, §3, §4, §5, §6

[8] = system: SHI-1; experiment: Six-day cell proliferation assay (CellTiter-Glo); type: cell-based; settings: 144 h; SHI-1 (AML), 6 days; read-out: Average day 6 gIC50
Procedure: as §1, §2, §3, §4, §5, §6

[9] = system: RPMI-8226 xenograft; experiment: RPMI-8226 multiple myeloma xenograft study; type: in vivo, CB-17 SCID mice
Procedure: For the in vivo efficacy studies, there were 8 mice per dose group and each mouse was inoculated subcutaneously at the right flank. All cells were suspended in a 0.2 mL mixture of base media and Matrigel at 1:1 for tumor development. RPMI-8226 cells were inoculated at 5 × 10^6 cells/mouse and treatment began when the mean tumor sizes reached 120 mm^3 (28 days post-inoculation). CB-17 SCID Mice were assigned into groups using a randomized block design. […] Body weights were measured twice a week for the duration of the study. Tumor size was measured twice weekly in two dimensions using a caliper, and the volume was expressed in cubic millimeters. Animals were euthanized 3 hours post-final dose, with blood and tissues collected for analysis.

Molecule `CNC[C@@H](O)COc1ccc(Cl)c(-c2nc(-c3c(C)noc3C)c(C)c(N3CC4(CCN(C(=O)OC)CC4)C3)n2)c1` [EZM2302] has an IC50 [1] of 20.4 µM, an IC50 [2] greater than 36.5 µM and an IC50 [3] of 22.1 µM. For the same molecule, the IC50 [4] was greater than 36.7 µM, the IC50 [5] was greater than 26.1 µM and the IC50 [6] was greater than 27.6 µM. For the same molecule, the IC50 [7] was 25.9 µM, the IC50 [8] was greater than 36 µM and the “Tumor growth inhibition (TGI)” value ([9]; 37.5 mg/kg BID oral, 21 days) was 45%. The “increase in unmethylated SmB (SmBme0) in tumor” value ([9]; 37.5 mg/kg BID oral, day 21) was 8 fold, the “maximal inhibition of aDMA levels in tumor” value ([9]; 75 mg/kg BID oral, day 21) was 65% and the “Methylated PABP1 in tumor” value ([9]; 75 mg/kg and higher dose groups, day 21) was “undetectable in most animals”. For the same molecule, the “increase in unmethylated SmB (SmBme0) in tumor” value ([9]; 150 mg/kg BID oral, day 21) was 14 fold, the tolerability ([9]; 150 mg/kg and below BID oral, 21 days) was “well tolerated” and the “Tumor growth inhibition (TGI)” value ([9]; 300 mg/kg BID oral, 21 days) was 63%. For the same molecule, the body weight ([9]; 300 mg/kg BID oral, 21 days) was “some body weight loss”, the “weight loss leading to dosing holidays” value ([9]; 6 of 8 animals in the 300 mg/kg group, holidays of 2 to 8 days) was “greater than 8%” and the “day of maximal changes in methylation in tumor tissue” value ([9]; 150 and 300 mg/kg BID, sampled after 2, 4 and 8 days) was 4 days.
